Test results: the NIST ThermoML archive (doi:10.1021/je060243s)
Values joined by “and” are separate entries in the source; they are usually repeats but may differ in a detail not shown here. Equal entries are not always repeated.

Assay: wn = mass fraction of the nth substance listed
Settings: Liquid, Pulse-echo method, w2 = 0.5

FC(F)C(F)(F)F [pentafluoroethane] + FCF
speed of sound
Settings	288.2 K	298.2 K	308.25 K	318.17 K	328.17 K	338.16 K
1650 kPa	500.3 m/s	–	–	–	–	–
1680 kPa	–	440.6 m/s and 440.2 m/s and 440.3 m/s	–	–	–	–
1750 kPa	501.7 m/s	441.7 m/s	–	–	–	–
1880 kPa	503.4 m/s	444 m/s	–	–	–	–
2010 kPa	505.1 m/s	446 m/s	–	–	–	–
2130 kPa	–	448.2 m/s	–	–	–	–
2170 kPa	–	–	383.3 m/s and 383.4 m/s	–	–	–
2250 kPa	508.2 m/s	450 m/s	384.9 m/s	–	–	–
2380 kPa	–	–	387.7 m/s	–	–	–
2510 kPa	511.3 m/s	454 m/s	390.5 m/s	–	–	–
2750 kPa	514.7 m/s	457.8 m/s	395.6 m/s	323.4 m/s	–	–
2760 kPa	–	–	–	323.6 m/s	–	–
2880 kPa	–	–	–	327.2 m/s	–	–
3010 kPa	517.7 m/s	461.7 m/s	400.6 m/s	330.8 m/s	–	–
3250 kPa	–	–	–	337.8 m/s	–	–
3470 kPa	–	–	–	–	257.9 m/s and 258.1 m/s and 258 m/s	–
3500 kPa	524 m/s	469.1 m/s	409.9 m/s	344.5 m/s	–	–
3590 kPa	–	–	–	–	263.4 m/s	–
3720 kPa	–	–	–	–	269.8 m/s	–
3860 kPa	–	–	–	–	275.4 m/s	–
4000 kPa	529.7 m/s	475.9 m/s	418.9 m/s	356.6 m/s	281.3 m/s	–
4250 kPa	–	–	–	–	290.2 m/s	–
4340 kPa	–	–	–	–	–	183.3 m/s
4410 kPa	–	–	–	–	–	189.7 m/s
4500 kPa	535.6 m/s	483 m/s	427.4 m/s	367.9 m/s	298.5 m/s	200.4 m/s
4750 kPa	–	–	–	–	–	217.6 m/s
5000 kPa	541.1 m/s	489.9 m/s	435.6 m/s	378.2 m/s	313.4 m/s	231.3 m/s
5500 kPa	–	–	–	–	–	255.4 m/s
6010 kPa	552 m/s	502.6 m/s	450.5 m/s	397.4 m/s	339.3 m/s	273.8 m/s
7010 kPa	562.3 m/s	514.4 m/s	464.7 m/s	414.5 m/s	360.6 m/s	303.5 m/s
8000 kPa	572.3 m/s	525.7 m/s	477.8 m/s	429.7 m/s	379.4 m/s	327.5 m/s
9000 kPa	582 m/s	536.4 m/s	490.2 m/s	444.1 m/s	396.7 m/s	348.4 m/s
10000 kPa	591.2 m/s	546.7 m/s	501.7 m/s	457.3 m/s	412.2 m/s	366.8 m/s
12000 kPa	608.7 m/s	566.4 m/s	523.6 m/s	481.7 m/s	440.2 m/s	398.9 m/s
14000 kPa	625.1 m/s	584.5 m/s	543.5 m/s	503.8 m/s	464.8 m/s	426.3 m/s
16010 kPa	640.6 m/s	601.6 m/s and 601.3 m/s	562.1 m/s	524.3 m/s	487.3 m/s	450.8 m/s
18000 kPa	655.7 m/s	617.3 m/s	579.5 m/s	543.1 m/s	507.4 m/s	472.9 m/s
20000 kPa	669.7 m/s	632.4 m/s	596 m/s	560.6 m/s	526.4 m/s	493.2 m/s
23000 kPa	689.6 m/s	653.8 m/s	619 m/s	585.3 m/s	552.3 m/s	521.1 m/s
26000 kPa	708.7 m/s	673.7 m/s	640 m/s	607.9 m/s	576.7 m/s	546.3 m/s
29010 kPa	727 m/s	693 m/s	660.1 m/s	628.9 m/s	598.7 m/s	569.7 m/s
32000 kPa	744 m/s	711.1 m/s	678.9 m/s	648.5 m/s	619.2 m/s	591.3 m/s
35000 kPa	760.4 m/s	728.5 m/s	697.2 m/s	667.3 m/s	638.6 m/s	611.3 m/s
40000 kPa	786.1 m/s	754.9 m/s	725.2 m/s	696.7 m/s	669 m/s	642.8 m/s
45000 kPa	810 m/s	780.3 m/s	751.3 m/s	723.8 m/s	697.4 m/s	671.7 m/s
50000 kPa	833 m/s	803.7 m/s	775.7 m/s	749.1 m/s	723.3 m/s	698.8 m/s
55000 kPa	854.6 m/s	826.3 m/s	798.8 m/s	772.8 m/s	747.8 m/s	724.1 m/s
60000 kPa	875.4 m/s	847.6 m/s	821 m/s	795.7 m/s	770.9 m/s	747.7 m/s
65000 kPa	895.5 m/s	868.2 m/s	841.9 m/s	817.3 m/s	793.1 m/s	770.1 m/s

Settings	speed of sound [m/s]
298.25 K	440.4
308.25 K	383.4
318.17 K	323.4
